Literature values in patent US20250078975A1, “METHODS OF PREDICTING PATIENT TREATMENT RESPONSE AND RESISTANCE VIA SINGLE-CELL TRANSCRIPTOMICS OF THEIR TUMORS” (The USA, as represented by the Secretary, Department of …, priority 2023, published 2025).

Tested on: cancer cell lines
Conditions: through downregulation of Akt (Bartholomeusz et al. 2011)

## Nc1ccn([C@@H]2O[C@H](CO)[C@@H](O)C2(F)F)c(=O)n1 [gemcitabine]
  Effect on erlotinib resistance: can overcome erlotinib resistance
